Assays:
RBL-2H3 cells = test: Histamine release assay (ELISA); format: cell-based, rat
Protocol: RBL-2H3 cells were plated into 24-well culture dishes at a cell density of 2 × 10^5 cells per well, or into 6-well culture dishes at a cell density of 9 × 10^5 cells per well, for 1 day at 37 °C in 5% CO2 atmosphere. After 1 day, RBL-2H3 cells were stimulated with SP (10 μM) or vehicle (water) and incubated for 15 min at 37 °C in 5% CO2 atmosphere.
SP-stimulated RBL-2H3 cells (2 × 10^5 cells/well) were treated with PEA (10 μM) or vehicle (methanol) for 15 min at 37 °C in 5% CO2 atmosphere. SP-stimulated RBL-2H3 cells were also treated with a CB2 antagonist, AM630 (0.1 μM), in the presence and absence of PEA (10 μM), or JWH133 (0.1 μM) (a CB2 synthetic agonist), and incubated for the indicated time. SP-stimulated RBL-2H3 cells were also treated with 2-AG (0.1 and 1 μM), or co-treated with PEA (0.1 μM) and 2-AG (0.1 μM), and incubated for the indicated time. SP-stimulated RBL-2H3 cells were also co-treated with PEA (10 μM) and OMDM188 (10 μM) (a DAGL inhibitor), and incubated for the indicated time. After 15 min, the supernatants were collected and the amounts of secreted histamine were measured by using a histamine ELISA kit according to the manufacturer’s instructions (Abnova) and by using a reader GENios Pro (Tecan). Data were expressed as nanograms per milliliter of histamine.

human recombinant DAGL-α = target: T1, human recombinant DAGL-α (Homo sapiens, UniProt Q9Y4D2); test: DAGL-α enzyme activity assay (COS-7 membranes; radiolabelled substrate or 2-AG by LC-MS); format: biochemical
T1 construct: expressed in transfected cells; host or cells: COS-7
T1 sequence (Q9Y4D2 1-1042): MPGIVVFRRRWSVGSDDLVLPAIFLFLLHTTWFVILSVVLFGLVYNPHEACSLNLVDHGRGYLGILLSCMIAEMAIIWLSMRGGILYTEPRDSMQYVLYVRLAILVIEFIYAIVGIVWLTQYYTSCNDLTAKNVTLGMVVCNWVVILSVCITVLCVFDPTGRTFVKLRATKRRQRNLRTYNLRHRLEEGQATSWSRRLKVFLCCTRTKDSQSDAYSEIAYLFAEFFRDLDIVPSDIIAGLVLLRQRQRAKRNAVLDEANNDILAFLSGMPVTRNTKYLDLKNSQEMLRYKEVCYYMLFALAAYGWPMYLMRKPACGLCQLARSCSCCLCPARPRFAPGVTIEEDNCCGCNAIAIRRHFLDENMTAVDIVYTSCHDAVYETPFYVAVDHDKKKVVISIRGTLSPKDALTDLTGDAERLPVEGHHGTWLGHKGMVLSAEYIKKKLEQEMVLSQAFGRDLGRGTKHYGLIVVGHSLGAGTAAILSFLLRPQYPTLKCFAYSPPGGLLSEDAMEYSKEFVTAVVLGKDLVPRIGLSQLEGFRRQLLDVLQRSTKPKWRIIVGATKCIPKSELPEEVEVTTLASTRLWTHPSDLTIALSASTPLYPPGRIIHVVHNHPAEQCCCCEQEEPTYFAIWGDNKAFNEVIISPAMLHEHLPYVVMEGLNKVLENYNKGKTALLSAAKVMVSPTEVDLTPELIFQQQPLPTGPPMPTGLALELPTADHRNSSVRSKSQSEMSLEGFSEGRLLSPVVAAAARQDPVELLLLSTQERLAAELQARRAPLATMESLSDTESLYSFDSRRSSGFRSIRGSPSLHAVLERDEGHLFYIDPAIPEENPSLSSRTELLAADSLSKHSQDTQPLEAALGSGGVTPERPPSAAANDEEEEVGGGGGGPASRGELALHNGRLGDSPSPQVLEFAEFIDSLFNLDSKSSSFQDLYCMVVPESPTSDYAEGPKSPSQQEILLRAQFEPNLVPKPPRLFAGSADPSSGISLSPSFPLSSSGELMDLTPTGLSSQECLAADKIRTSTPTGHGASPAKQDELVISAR
Protocol: DAGL-α enzyme activity was assessed as previously reported by using membrane preparations (50 μg of protein) obtained from COS-7 cells overexpressing the human recombinant DAGL-α enzyme, and 1-[^14C]oleoyl-2-arachidonoylglycerol (1.0 mCi/mmol, 25 μM, synthesized as previously reported, as substrate in the presence of vehicle or increasing concentrations of PEA (0.1–25 μM) in Tris-HCl 50 mM pH 7.4. After the incubation (20 min at 37 °C), lipids were extracted with two volumes of CHCl3/CH3OH (2:1, v/v). The organic extracts, lyophilized under vacuum, were used to quantify the levels of 2-AG by LC-APCI-MS (as described above), or purified by using TLC on silica on polypropylene plates eluted in CHCl3/CH3OH/NH4OH (85:15:0.1%, v/v) as the eluting solvent. Bands corresponding to [^14C]-oleic acid were cut and their radioactivity was measured by using Liquid Scintillation Analyzer (TRI-carb 2100TR). Data were expressed as % of DAGL-α stimulation. To quantify the levels of 2-AG by LC-APCI-MS a non-radiolabeled 1-oleoyl-2-arachidonoylglycerol substrate was used.

Which results are given for `CCCCCCCCCCCCCCCC(=O)NCCO` [PEA, Palmitoylethanolamide]?
histamine release (RBL-2H3 cells; SP (10 μM)-stimulated cells, compound 0.1 μM, 15 min, vs SP + vehicle): comparable; histamine release (RBL-2H3 cells; SP (10 μM)-stimulated cells, compound 10 μM, 15 min, vs SP + vehicle): inhibited the release of histamine; histamine release (RBL-2H3 cells; SP-stimulated cells co-treated with PEA 0.1 μM and 2-AG 0.1 μM, 15 min): able to reduce; histamine release (RBL-2H3 cells; SP-stimulated cells co-treated with PEA 10 μM and AM630 0.1 μM, vs SP + vehicle or SP + AM630): comparable; histamine release (RBL-2H3 cells; substance alone 10 μM, 15 min, vs vehicle-treated cells): No effect; elevation of levels of 2-AG produced by DAGL-α (LC-MS) (human recombinant DAGL-α; PEA 25 μM + substrate, compared to membrane preparations incubated alone (no substrate, no PEA)): 5.6 fold; elevation of levels of 2-AG produced by DAGL-α (LC-MS) (human recombinant DAGL-α; PEA 25 μM, compared to membrane preparations incubated with the substrate 1-oleoyl-2-arachidonoylglycerol and without PEA): 1.4 fold; EC50 (human recombinant DAGL-α; membranes of COS-7 cells over-expressing DAGL-α, 20 min 37 °C, read-out: EC50, stimulation of DAGL-α activity): 17.3 ± 2.35 µM
